According to PMC7352292, “Targeting Pharmacokinetic Drug Resistance in Acute Myeloid Leukemia Cells with CDK4/6 Inhibitors” (Cancers, 2020):
Where two headings read alike, the source gives them in different places.

Experiments:
HL-60 cells = assay: Sub-G1 fraction of HL-60 parental/control cells; type: cell-based, human; conditions: single drug vs untreated control
Procedure: (§1) The fluorescent substrates daunorubicin (0.2 µM) or mitoxantrone (1 µM) were then added and the suspensions incubated for 4 h at 37 °C and 5% CO2. […] The percentage of cells displaying hypodiploid DNA content is presented as a sub-G1 region of a PI histogram.

ABCG2 [1] = biological target: T1, ABCG2 (Homo sapiens, UniProt Q9UNQ0); assay: Mitoxantrone accumulation in HL-60 ABCG2 cells
T1 sequence (Q9UNQ0 1-655): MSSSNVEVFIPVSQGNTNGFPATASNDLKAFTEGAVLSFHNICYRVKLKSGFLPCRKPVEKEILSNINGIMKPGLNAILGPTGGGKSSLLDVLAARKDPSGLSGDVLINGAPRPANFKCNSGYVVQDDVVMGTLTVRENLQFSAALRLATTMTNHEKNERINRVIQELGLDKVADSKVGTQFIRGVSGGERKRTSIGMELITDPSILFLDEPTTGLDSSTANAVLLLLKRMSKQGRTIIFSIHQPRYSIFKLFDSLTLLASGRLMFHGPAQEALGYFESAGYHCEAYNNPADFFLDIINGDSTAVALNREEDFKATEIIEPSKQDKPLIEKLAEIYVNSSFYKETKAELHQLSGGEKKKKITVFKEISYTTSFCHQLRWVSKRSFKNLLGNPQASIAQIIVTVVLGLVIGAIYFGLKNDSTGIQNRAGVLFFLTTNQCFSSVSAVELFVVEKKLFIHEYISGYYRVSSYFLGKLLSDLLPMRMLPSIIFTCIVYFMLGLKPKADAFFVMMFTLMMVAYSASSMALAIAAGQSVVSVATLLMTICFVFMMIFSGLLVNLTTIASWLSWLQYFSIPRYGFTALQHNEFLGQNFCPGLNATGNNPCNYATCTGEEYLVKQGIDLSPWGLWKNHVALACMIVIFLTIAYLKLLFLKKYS
Procedure: (§3) LY335979 (1 µM) and Ko143 (1 µM) were used as ABCB1 and ABCG2 model inhibitors. After 15 min, daunorubicin (HL-60 and HL-60 ABCB1) or mitoxantrone (HL-60 and HL-60 ABCG2) was added for 1 h at a final concentration of 1 µM (37 °C, 5% CO2). Subsequently, the samples were centrifuged at 150 × g for 5 min, washed in 500 µL ice-cold phosphate buffered saline (PBS), then resuspended again in 500 µL ice-cold PBS and promptly analyzed with a BD FACSCanto II flow cytometer (BD Biosciences, San Jose, CA, USA) using excitation/emission wavelengths 488/670 nm for daunorubicin and 633/660 nm for mitoxantrone.
(§4) The data were statistically analyzed in GraphPad Prism 8.0.1 (GraphPad Software, Inc., San Diego, CA, USA). One-way ANOVA with Dunnett’s post hoc test or Student’s t-test was used for results obtained in vitro, and the nonparametric Mann–Whitney test was used to analyze ex vivo experiments. Half-maximal inhibitory concentrations (IC50) were calculated using sigmoidal Hill kinetics while showing also the corresponding 95% confidence intervals. The correlation between expression and function of ABCB1 and ABCG2 was determined by linear regression. All differences were considered significant at p < 0.05.

AKR1B1 = biological target: T2, AKR1B1 (Homo sapiens, UniProt P15121); assay: Screening for inhibitory activity on recombinant CRE: AKR1B1; type: biochemical; conditions: 50 μM inhibitor concentration; mean ± SD, three experiments
T2 construct: made in house; host or cells: Escherichia coli
Excerpt: (§2) Human recombinant carbonyl reducing enzymes CBR1, AKR1A1, AKR1B1, AKR1B10, and AKR1C3 were expressed and isolated by the Escherichia coli expression system as described previously.

PBMC of AML patients [2] = assay: Apoptosis detection (annexin V/PI) in PBMC of AML patients; type: cell-based, human; conditions: vs untreated control, 4 h, cmax concentrations
Procedure: PBMC were isolated from whole blood using Ficoll-Paque PLUS gradient solution (GE Healthcare, Sweden) according to the manufacturer’s instructions. The mononuclear cells thus obtained were washed twice in 6 ml PBS and either transferred to RPMI with 10% FBS and immediately used for experiments or stored frozen in liquid nitrogen. […] The stated concentrations correspond with cmax plasma levels of the respective drugs. […] The cells were then washed in ice-cold PBS and resuspended in 195 µL of 2% FBS in PBS. The anti-human CD34/PE antibody 4H11 (Invitrogen, Carlsbad, CA, USA) was added and incubated on ice for 30 min. This was followed by washing and resuspending in 1 × ABB and staining by annexin V/FITC conjugate as described above. After subsequent staining with PI, the samples were analyzed using the SONY SA3800 spectral cell analyzer.

[3] = cited from earlier work
PBMC of AML patients [4] = assay: Mitoxantrone accumulation in PBMC of AML patients; type: cell-based, human; conditions: 1 µM mitoxantrone, 4 h; for increase of median mitoxantrone accumulation: cmax concentrations, vs untreated control; for effect on median mitoxantrone accumulation: CD34− PBMC, cmax concentrations (0.5 µM abemaciclib, 0.5 µM palbociclib, 7.5 µM ribociclib)
HL-60 ABCB1 cells = assay: Sub-G1 fraction of HL-60 ABCB1 cells; type: cell-based, human; conditions: 4 h
Procedure: as §1

AKR1C3 [5] = biological target: T3, AKR1C3 (Homo sapiens, UniProt P42330); assay: Screening for inhibitory activity on recombinant CRE: AKR1C3; type: biochemical; parameters: made in house; host or cells: Escherichia coli; conditions: 50 μM inhibitor concentration; mean ± SD, three experiments
T3 sequence (P42330 1-323): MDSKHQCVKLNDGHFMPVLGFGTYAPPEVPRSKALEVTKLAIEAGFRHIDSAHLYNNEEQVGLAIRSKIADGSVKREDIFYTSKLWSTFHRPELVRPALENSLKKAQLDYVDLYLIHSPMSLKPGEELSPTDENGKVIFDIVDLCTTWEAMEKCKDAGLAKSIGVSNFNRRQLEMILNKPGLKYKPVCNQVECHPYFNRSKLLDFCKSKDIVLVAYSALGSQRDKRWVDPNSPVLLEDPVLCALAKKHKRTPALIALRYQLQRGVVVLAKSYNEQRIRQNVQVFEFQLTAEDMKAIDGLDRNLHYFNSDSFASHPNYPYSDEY
Excerpt: as §2

AKR1B10 = biological target: T4, AKR1B10 (Homo sapiens, UniProt O60218); assay: Screening for inhibitory activity on recombinant CRE: AKR1B10; type: biochemical; conditions: 50 μM inhibitor concentration; mean ± SD, three experiments
T4 construct: made in house; host or cells: Escherichia coli
Excerpt: as §2

AKR1C3 [6] = biological target: T3, AKR1C3; assay: Inhibitory assay on HCT116 cells with transient AKR1C3 expression (daunorubicin to daunorubicinol); type: cell-based; conditions: HCT116 transfected with AKR1C3, 1 µM daunorubicin, 0.1-10 μM drug, 4 h
Procedure: HCT116 cells were seeded (1.25 × 10^5 cells/well) in 24-well plates and after 24 h in culture transfected with mammalian pCI_AKR1C3 plasmid as described previously. The expression of recombinant AKR1C3 was verified by western blotting using rabbit polyclonal anti-AKR1C3 antibody (ab84327, Abcam, Cambridge, UK). Uniformity of transfection was assumed only when <10% difference was observed between experiments regarding the expression of pCI plasmid containing GFP reporter gene. […] After 4 h incubation (37 °C, 5% CO2), medium was collected, cells were lysed, and resulting samples were handled and analyzed by ultra high-performance liquid chromatography as described previously.

AKR1A1 = biological target: T5, AKR1A1 (Homo sapiens, UniProt P14550); assay: Screening for inhibitory activity on recombinant CRE: AKR1A1; type: biochemical; conditions: 50 μM inhibitor concentration; mean ± SD, three experiments
T5 construct: made in house; host or cells: Escherichia coli
T5 sequence (P14550 1-325): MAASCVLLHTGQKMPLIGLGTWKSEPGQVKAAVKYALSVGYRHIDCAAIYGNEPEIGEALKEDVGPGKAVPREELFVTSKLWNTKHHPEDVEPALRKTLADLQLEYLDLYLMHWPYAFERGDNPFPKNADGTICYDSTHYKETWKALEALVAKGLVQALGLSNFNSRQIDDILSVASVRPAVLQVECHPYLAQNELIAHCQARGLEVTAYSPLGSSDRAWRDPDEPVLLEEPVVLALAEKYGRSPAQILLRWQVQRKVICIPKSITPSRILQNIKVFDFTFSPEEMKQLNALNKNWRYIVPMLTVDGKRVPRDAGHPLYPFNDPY
Excerpt: as §2

CBR1 = biological target: T6, CBR1 (Homo sapiens, UniProt P16152); assay: Screening for inhibitory activity on recombinant CRE: CBR1; type: biochemical; conditions: 50 μM inhibitor concentration; mean ± SD, three experiments
T6 construct: made in house; host or cells: Escherichia coli
T6 sequence (P16152 1-277): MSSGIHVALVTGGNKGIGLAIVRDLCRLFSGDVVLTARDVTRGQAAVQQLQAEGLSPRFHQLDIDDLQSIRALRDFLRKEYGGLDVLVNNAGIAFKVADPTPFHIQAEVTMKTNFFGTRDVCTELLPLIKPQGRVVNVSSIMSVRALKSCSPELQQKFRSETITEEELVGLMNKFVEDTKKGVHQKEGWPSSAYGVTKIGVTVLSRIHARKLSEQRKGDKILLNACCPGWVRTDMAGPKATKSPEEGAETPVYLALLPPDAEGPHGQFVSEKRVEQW
Excerpt: as §2

HL-60 ABCG2 cells [7] = assay: Sub-G1 fraction of HL-60 ABCG2 cells; conditions: mitoxantrone alone 1 µM, 4 h
Procedure: Estimation of fractional DNA content in the late stage of apoptosis was additionally used to clarify the results of annexin V/PI staining. […] The fluorescent substrates daunorubicin (0.2 µM) or mitoxantrone (1 µM) were then added and the suspensions incubated for 4 h at 37 °C and 5% CO2. Afterwards, the cells were resuspended in 2% FBS in PBS and fixed with ice-cold 70% ethanol for at least 30 min at −20 °C. After fixation, the cells were diluted and washed twice with 2% FBS in PBS. Then, 50 µL of RNAse A (100 µg/mL) was applied to ensure that only DNA would be present. Next, 200 µL of PI (50 µg/mL) was added to stain the DNA content of the cells. The samples were incubated for 1 h at 37 °C and 5% CO2. Analysis was performed using a SONY SA3800 spectral cell analyzer. The percentage of cells displaying hypodiploid DNA content is presented as a sub-G1 region of a PI histogram.

HL-60 ABCG2 cells [8] = assay: Annexin V/PI staining of HL-60 ABCG2 cells; conditions: mitoxantrone alone 1 µM, 4 h
Procedure: The cell suspension was preincubated for 15 min, and then, 1 µM mitoxantrone was added. Mitoxantrone, a dual substrate of ABCB1 and ABCG2, was chosen as resistance victim drug for the experiment because there are no fluorescence spillovers with propidium iodide (PI), which limit the usage of daunorubicin in this setup. The cells were incubated for 4 h at 37 °C and 5% CO2, washed and subsequently resuspended in 1 × annexin binding buffer (ABB, 195 µL) followed by addition of 5 µL of annexin V/fluorescein isothiocyanate (FITC) conjugate. The suspension was incubated in darkness for 10 min. Cells were then washed once in 1 × ABB and resuspended in 400 µL of ABB. Prior to the measurement, 10 µL of PI solution was added and cells were analyzed by BD FACSCanto II flow cytometer using excitation/emission wavelengths 488/530 nm and 488/670 for FITC and PI, respectively.

ABCG2 [9] = biological target: T1, ABCG2; conditions: 1 h
Procedure: as §3, §4

ABCB1 = ABCB1 (Homo sapiens, UniProt P08183); assay: Daunorubicin accumulation in HL-60 ABCB1 cells
Procedure: LY335979 (1 µM) and Ko143 (1 µM) were used as ABCB1 and ABCG2 model inhibitors. After 15 min, daunorubicin (HL-60 and HL-60 ABCB1) or mitoxantrone (HL-60 and HL-60 ABCG2) was added for 1 h at a final concentration of 1 µM (37 °C, 5% CO2).
The data were statistically analyzed in GraphPad Prism 8.0.1 (GraphPad Software, Inc., San Diego, CA, USA). One-way ANOVA with Dunnett’s post hoc test or Student’s t-test was used for results obtained in vitro, and the nonparametric Mann–Whitney test was used to analyze ex vivo experiments. […] The correlation between expression and function of ABCB1 and ABCG2 was determined by linear regression. All differences were considered significant at p < 0.05.

[10] = CDKI (1, 10, 25 µM abemaciclib, palbociclib, ribociclib) + 0.2 µM daunorubicin

T4 sequence (O60218 whole entry): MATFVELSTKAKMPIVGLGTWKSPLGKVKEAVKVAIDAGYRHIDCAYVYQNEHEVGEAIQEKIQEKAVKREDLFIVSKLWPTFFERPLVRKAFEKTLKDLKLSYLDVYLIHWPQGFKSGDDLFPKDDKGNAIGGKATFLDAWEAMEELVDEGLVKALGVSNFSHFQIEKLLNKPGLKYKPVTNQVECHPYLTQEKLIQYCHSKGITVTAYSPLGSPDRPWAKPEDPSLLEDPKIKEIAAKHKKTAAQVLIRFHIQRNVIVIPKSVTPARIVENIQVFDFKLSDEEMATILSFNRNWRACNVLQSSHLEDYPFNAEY
ABCB1, sequence (P08183 whole entry): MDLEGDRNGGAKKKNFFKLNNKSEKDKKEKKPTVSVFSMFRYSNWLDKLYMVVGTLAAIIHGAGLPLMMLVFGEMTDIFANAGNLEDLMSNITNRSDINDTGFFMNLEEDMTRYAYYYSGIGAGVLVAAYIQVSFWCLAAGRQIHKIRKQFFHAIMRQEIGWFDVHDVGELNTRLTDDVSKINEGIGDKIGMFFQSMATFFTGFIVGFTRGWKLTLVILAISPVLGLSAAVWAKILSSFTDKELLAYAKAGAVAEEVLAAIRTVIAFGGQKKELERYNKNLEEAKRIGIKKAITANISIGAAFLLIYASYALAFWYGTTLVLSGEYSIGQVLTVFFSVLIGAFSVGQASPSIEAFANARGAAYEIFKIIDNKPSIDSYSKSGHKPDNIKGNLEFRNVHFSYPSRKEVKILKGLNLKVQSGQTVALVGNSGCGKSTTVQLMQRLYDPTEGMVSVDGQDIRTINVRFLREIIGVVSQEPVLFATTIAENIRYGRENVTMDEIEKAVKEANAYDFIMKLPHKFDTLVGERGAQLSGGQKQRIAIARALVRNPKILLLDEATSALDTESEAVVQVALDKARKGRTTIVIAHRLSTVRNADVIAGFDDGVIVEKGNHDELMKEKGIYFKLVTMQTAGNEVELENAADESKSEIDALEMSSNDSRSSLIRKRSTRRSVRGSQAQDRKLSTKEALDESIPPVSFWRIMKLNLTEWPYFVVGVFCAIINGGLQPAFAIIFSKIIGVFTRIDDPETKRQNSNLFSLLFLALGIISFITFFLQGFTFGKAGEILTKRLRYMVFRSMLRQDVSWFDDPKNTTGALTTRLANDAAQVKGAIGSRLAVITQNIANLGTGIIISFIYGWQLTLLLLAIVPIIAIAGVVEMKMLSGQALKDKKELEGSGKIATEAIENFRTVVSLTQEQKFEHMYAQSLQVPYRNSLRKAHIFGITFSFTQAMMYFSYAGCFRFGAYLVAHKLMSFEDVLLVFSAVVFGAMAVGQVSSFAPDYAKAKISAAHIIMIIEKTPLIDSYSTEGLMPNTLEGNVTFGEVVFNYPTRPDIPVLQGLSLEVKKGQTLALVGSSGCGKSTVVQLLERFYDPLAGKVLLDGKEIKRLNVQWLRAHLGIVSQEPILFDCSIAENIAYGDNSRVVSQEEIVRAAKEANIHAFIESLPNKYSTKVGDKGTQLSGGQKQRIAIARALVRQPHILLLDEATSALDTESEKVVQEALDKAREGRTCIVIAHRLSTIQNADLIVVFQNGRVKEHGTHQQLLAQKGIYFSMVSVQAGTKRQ

| SMILES | proapoptotic effect (sub-G1) as a single drug (HL-60 cells) | IC50 (ABCG2 [1]) [µM] | inhibition at 50 µM (AKR1B1) [%] | changes in PBMC apoptosis after single drug exposure (PBMC of AML patients [2]) | Cmax ([3]; human, in vivo) [nM] | increase of median mitoxantrone accumulation (PBMC of AML patients [4]; CD34+ PBMC) [%] | effect on median mitoxantrone accumulation (PBMC of AML patients [4]) | increase of median mitoxantrone accumulation (PBMC of AML patients [4]; FLT3-ITD− population) [%] | sub-G1 fraction (HL-60 ABCB1 cells; [10]) [%] | inhibition at 50 µM (AKR1C3 [5]) [%] | inhibition at 50 µM (AKR1B10) [%] | changes in intracellular reduction of daunorubicin to daunorubicinol (AKR1C3 [6]) | inhibition at 50 µM (AKR1A1) [%] | inhibition at 50 µM (CBR1) [%] | fold lower potency toward ABCG2 compared to ABCB1 (ABCG2 [9]) [fold] | IC50 (ABCB1) [µM] | other results |
| --- | --- | --- | --- | --- | --- | --- | --- | --- | --- | --- | --- | --- | --- | --- | --- | --- | --- |
| CN(C)C(=O)c1cc2cnc(Nc3ccc(N4CCNCC4)cn3)nc2n1C1CCCC1 [Ribociclib, ribociclib] | Neither abemaciclib, palbociclib, nor ribociclib caused a significant proapoptotic effect | 26.9 | 4.58 ± 2.41 | no significant changes | 7500 | 60.5 | did not affect | 28.6 | 35.6 | 36.2 ± 2.83 | 7.41 ± 1.08 | did not show any changes | 0 | 0 | – | – | – |
| O=C1c2c(O)ccc(O)c2C(=O)c2c(NCCNCCO)ccc(NCCNCCO)c21 [mitoxantrone] | – | – | – | – | – | – | – | – | – | – | – | – | – | – | – | – | sub-G1 fraction (HL-60 ABCG2 cells [7]): 46.2%; annexin V+ population (HL-60 ABCG2 cells [8]): 25.2% |
| CC(=O)c1c(C)c2cnc(Nc3ccc(N4CCNCC4)cn3)nc2n(C2CCCC2)c1=O [Palbociclib, palbociclib] | Neither abemaciclib, palbociclib, nor ribociclib caused a significant proapoptotic effect | 45.5 | 5.54 ± 3.4 | no significant changes | – | 33.4 | did not affect | 3.58 | 30.7 | 23.5 ± 6.67 | 0 | did not show any changes | 0 | 0 | 6.8 | 6.65 | Cmax ([3]; read-out: cmax plasma levels, standard dosing, concentration used in PBMC experiments): 500 nM; ABCG2 IC50 fold higher than cmax (ABCG2 [9]): approximately 100 fold |
| COc1cccc2c1C(=O)c1c(O)c3c(c(O)c1C2=O)C[C@@](O)(C(C)=O)C[C@@H]3O[C@H]1C[C@H](N)[C@H](O)[C@H](C)O1 [daunorubicin] | – | – | – | – | – | – | – | – | – | – | – | – | – | – | – | – | sub-G1 fraction (HL-60 ABCB1 cells; daunorubicin alone 0.2 µM): 13.1% |
| CCN1CCN(Cc2ccc(Nc3ncc(F)c(-c4cc(F)c5nc(C)n(C(C)C)c5c4)n3)nc2)CC1 [Abemaciclib, abemaciclib] | Neither abemaciclib, palbociclib, nor ribociclib caused a significant proapoptotic effect | 2.98 | 0 | no significant changes | 500 | 37.4 | did not affect | 16.4 | 47.5 | 26.3 ± 1.3 | 2.08 ± 0.4 | did not show any changes | 0 | 0 | 8.4 | 0.354 | – |
